What was measured:
[1] = test system: r(CUG)12-MBNL1 complex; test: Inhibition of the r(CUG)12-MBNL1 complex measured by TR-FRET; format: biochemical; conditions: Table M; 80 nM RNA, 60 nM MBNL1-His6
[2] = test system: MBNL1 exon 5 inclusion in DM1 myotubes; test: Myotube splicing rescue assay (MBNL1 exon 5 inclusion); format: cell-based, human; conditions: 48-hour incubation

| Structure (SMILES) | IC50 [1] [µM] | MBNL1 % splicing rescue at 1 μM [2] [%] | MBNL1 % splicing rescue at 10 μM [2] [%] | MBNL1 % splicing rescue at 5 μM [2] [%] |
| --- | --- | --- | --- | --- |
| CN1CC[C@@H](NC(=O)c2ccc(-c3nc4cc(-c5ccc6[nH]c(-c7ccc(C(=O)N[C@@H]8CCN(C)C8)cc7)nc6c5)ccc4[nH]3)cc2)C1 [Compound 339] | 5.96 | −3.2 | 1.8 | – |
| CN1CCC(CNC(=O)c2ccc(-c3nc4cc(-c5ccc6[nH]c(-c7ccc(C(=O)NCC8CCN(C)CC8)cc7)nc6c5)ccc4[nH]3)cc2)CC1 [Compound 340] | 6.17 | −3.4 | −0.4 | – |
| c1cc(-c2nc3cc(-c4ccc5[nH]c(-c6ccc(OCCN7CCCC7)cc6)nc5c4)ccc3[nH]2)ccc1OCCN1CCCC1 [Compound 347] | 13.5 | 78.9 | 98.1 | – |
| CN(C)CCCOc1ccc(-c2nc3cc(-c4ccc5[nH]c(-c6ccc(O)cc6)nc5c4)ccc3[nH]2)cc1 [Compound 348] | 16.8 | 75.3 | 75.3 | – |
| c1cc(-c2nc3cc(-c4ccc5[nH]c(-c6ccc(OCCN7CCCCC7)cc6)nc5c4)ccc3[nH]2)ccc1OCCN1CCCCC1 [Compound 350] | 16.9 | 47.2 | – | – |
| c1ccc(COc2ccc(-c3nc4cc(-c5ccc6[nH]c(-c7ccc(OCc8ccccn8)cc7)nc6c5)ccc4[nH]3)cc2)nc1 [Compound 352] | 25.8 | 3.1 | 9.6 | – |
| CCN(CC)CCOc1ccc(-c2nc3cc(-c4ccc5[nH]c(-c6ccc(OCCN(CC)CC)cc6)nc5c4)ccc3[nH]2)cc1 [Compound 353] | 13.3 | 7.5 | – | – |
| CN1CCC[C@H]1COc1ccc(-c2nc3cc(-c4ccc5[nH]c(-c6ccc(OC[C@@H]7CCCN7C)cc6)nc5c4)ccc3[nH]2)cc1 [Compound 356] | 30.4 | 43.7 | 59.2 | – |
| CN1CCC[C@H]1COc1ccc(-c2nc3cc(-c4ccc5[nH]c(-c6ccc(O)cc6)nc5c4)ccc3[nH]2)cc1 [Compound 357] | 15.1 | 1.1 | 66.0 | – |
| CN1CCCCC1COc1ccc(-c2nc3cc(-c4ccc5[nH]c(-c6ccc(O)cc6)nc5c4)ccc3[nH]2)cc1 (centres unmarked) [Compound 358] | 19.2 | 12.4 | 74.6 | – |
| CN(C)CCCCCOc1ccc(-c2nc3cc(-c4ccc5[nH]c(-c6ccc(OCCCCCN(C)C)cc6)nc5c4)ccc3[nH]2)cc1 [Compound 371] | 12.8 | 79.7 | 72.4 | – |
| CN(C)CCNC(=O)c1ccc(-c2nc3cc(-c4ccc5[nH]c(-c6ccc(SCCN(C)C)cc6)nc5c4)ccc3[nH]2)cc1 [Compound 384] | 10.1 | – | 93.9 | – |
| CN(C)CCCNC(=O)c1ccc(-c2nc3cc(-c4ccc5[nH]c(-c6ccc(C(=O)NCCCN(C)C)cc6)nc5c4)ccc3[nH]2)cc1 [Compound 393] | 7.48 | – | 17.1 | – |
| C#CCCCCN(C)CCNC(=O)c1ccc(-c2nc3cc(-c4ccc5[nH]c(-c6ccc(C(=O)NCCN(C)C)cc6)nc5c4)ccc3[nH]2)cc1 [Compound 401, N-(2-(dimethylamino)ethyl)-4-(2′-(4-((2-(hex-5-yn-1-yl(methyl)amino)ethyl)carbamoyl)phenyl)-1H,1′H-[5,5′-bibenzo[d]imidazol]-2-yl)benzamide] | 10.6 | – | – | −11.3 |
| CC(=O)NCCCn1cc(CCCCN(C)CCNC(=O)c2ccc(-c3nc4cc(-c5ccc6[nH]c(-c7ccc(C(=O)NCCN(C)C)cc7)nc6c5)ccc4[nH]3)cc2)nn1 [Compound 402] | 10.9 | – | – | −33.8 |
| C#CCCCCN(C)CCNC(=O)c1ccc(-c2nc3cc(-c4ccc5[nH]c(-c6ccc(OCCCN(C)C)cc6)nc5c4)ccc3[nH]2)cc1 [Compound 403] | 5.6 | – | 90.5 | – |
